Our source for the inhibition in vivo, IC50 and inhibition values is ChEMBL document CHEMBL1147032, “Design, synthesis, and biological evaluation of substituted 2-alkylthio-1,5-diarylimidazoles as selective COX-2 inhibitors” (Bioorg Med Chem, 2007).

Each structure is given as a SMILES string. A value given as a limit tells only on which side of the number the result lay.

The subject of assay [1] is Rattus norvegicus. The experiment in a line: Antiinflammatory activity against carrageenan-induced paw edema in Sprague-Dawley rat at 50 mg/kg, po after 3 hrs. It is filed as functional.
Assay [2] has as its target T1, Prostaglandin G/H synthase 2 (Mus musculus, UniProt Q05769).
T1 sequence (Q05769 whole entry): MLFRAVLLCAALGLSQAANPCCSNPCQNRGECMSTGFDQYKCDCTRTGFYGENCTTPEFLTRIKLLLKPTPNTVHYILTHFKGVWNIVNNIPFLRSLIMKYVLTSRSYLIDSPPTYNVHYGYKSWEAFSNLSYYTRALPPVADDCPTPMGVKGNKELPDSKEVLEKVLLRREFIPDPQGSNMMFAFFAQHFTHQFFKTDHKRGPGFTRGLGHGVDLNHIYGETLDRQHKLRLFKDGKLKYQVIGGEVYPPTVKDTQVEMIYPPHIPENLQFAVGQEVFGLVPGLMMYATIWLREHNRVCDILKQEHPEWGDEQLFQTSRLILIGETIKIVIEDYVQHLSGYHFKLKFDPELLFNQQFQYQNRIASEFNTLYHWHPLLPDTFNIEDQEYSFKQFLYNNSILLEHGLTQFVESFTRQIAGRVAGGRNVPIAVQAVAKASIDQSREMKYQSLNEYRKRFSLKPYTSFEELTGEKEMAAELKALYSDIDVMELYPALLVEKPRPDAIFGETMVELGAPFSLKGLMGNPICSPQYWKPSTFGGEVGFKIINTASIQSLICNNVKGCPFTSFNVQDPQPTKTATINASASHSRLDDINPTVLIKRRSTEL
The experiment in a line: Inhibition of mouse COX2.

Assay [3] has as its target T2, Prostaglandin G/H synthase 1 (Ovis aries, UniProt P05979).
T2 sequence (P05979 whole entry): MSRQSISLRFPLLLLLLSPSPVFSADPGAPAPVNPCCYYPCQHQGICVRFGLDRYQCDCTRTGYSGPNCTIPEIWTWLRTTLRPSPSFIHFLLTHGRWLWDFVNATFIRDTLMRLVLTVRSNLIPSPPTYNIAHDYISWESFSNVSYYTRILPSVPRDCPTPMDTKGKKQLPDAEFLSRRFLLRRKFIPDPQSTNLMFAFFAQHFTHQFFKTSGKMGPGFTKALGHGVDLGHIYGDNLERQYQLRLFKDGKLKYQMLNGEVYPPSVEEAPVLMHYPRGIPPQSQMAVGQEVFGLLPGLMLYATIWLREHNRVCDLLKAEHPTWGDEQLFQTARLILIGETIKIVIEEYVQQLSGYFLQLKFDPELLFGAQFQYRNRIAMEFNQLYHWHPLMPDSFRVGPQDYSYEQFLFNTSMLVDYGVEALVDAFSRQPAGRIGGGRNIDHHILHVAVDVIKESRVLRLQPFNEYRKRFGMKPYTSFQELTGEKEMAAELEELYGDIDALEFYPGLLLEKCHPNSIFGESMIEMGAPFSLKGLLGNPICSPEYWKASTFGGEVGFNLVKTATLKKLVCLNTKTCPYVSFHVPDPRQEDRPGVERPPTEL
The experiment in a line: Inhibition of ovine COX1.

Assay [4] deals with Rattus norvegicus. The experiment in a line: Antiinflammatory activity against carrageenan-induced paw edema in Sprague-Dawley rat at 50 mg/kg, po after 5 hrs. It is filed as functional.
The nature of assay [5]: Inhibition of ovine COX1 at 25 uM.
Assay [6] is described as follows: Inhibition of ovine COX1 at 0.5 uM.

With `CSc1ncc(-c2ccc(S(C)(=O)=O)cc2)n1-c1ccc(F)cc1`, the figures for the inhibition in vivo at 50 mg/kg in the assay with Rattus norvegicus [1] and in the assay with Rattus norvegicus [4] were 40% and 18.7%, respectively. The results for the IC50 in assay [2] and in assay [3] were more than 25000 nM and 520 nM, respectively.
For the compound `CCSc1ncc(-c2ccc(S(C)(=O)=O)cc2)n1-c1ccc(OC)cc1`, the figures for the IC50 in assay [2] and in assay [3] were more than 25000 nM and 510 nM, respectively.
With `CCSc1ncc(-c2ccc(S(C)(=O)=O)cc2)n1-c1ccccc1`, the inhibition in vivo at 50 mg/kg in the assay with Rattus norvegicus [1] amounted to 89.7%; in the assay with Rattus norvegicus [4] it was 51.1%. In addition, the figures for the IC50 in assay [2] and in assay [3] were more than 25000 nM and 580 nM, respectively.
Regarding `Cc1ccc(-c2cc(C(F)(F)F)nn2-c2ccc(S(N)(=O)=O)cc2)cc1` [CELECOXIB], the inhibition in vivo at 50 mg/kg in the assay on Rattus norvegicus [1] turned out to be 70.5%; in the assay on Rattus norvegicus [4] it was 50%.
As to `CSc1ncc(-c2ccc(S(C)(=O)=O)cc2)n1-c1ccc(Br)cc1`, the inhibition in vivo at 50 mg/kg with Rattus norvegicus [1] turned out to be 90.7%; with Rattus norvegicus [4], 88%. Besides, the IC50 is more than 25000 nM in assay [2] and 430 nM in assay [3].
Take `CCSc1ncc(-c2ccc(S(C)(=O)=O)cc2)n1-c1ccc(Br)cc1`: the inhibition in vivo at 50 mg/kg in the assay with Rattus norvegicus [1] was 66%; in the assay on Rattus norvegicus [4] it was 59%. Also, the IC50 was more than 25000 nM in assay [2] and more than 4000 nM in assay [3].
Regarding `COc1ccc(-n2c(-c3ccc(S(C)(=O)=O)cc3)cnc2SC)cc1`, the inhibition in vivo at 50 mg/kg turned out to be 41.3% in the assay on Rattus norvegicus [1] and 34.3% in the assay with Rattus norvegicus [4]. For the same compound, the IC50 was more than 25000 nM in assay [2] and 2610 nM in assay [3].
For `CCSc1ncc(-c2ccc(S(C)(=O)=O)cc2)n1-c1ccc(F)cc1`, the inhibition in assay [5] worked out at 29%; in assay [6], 21%. The inhibition in vivo at 50 mg/kg with Rattus norvegicus [1] came out at 65%; with Rattus norvegicus [4] it was 43%. Also, the values for the IC50 in assay [2] and in assay [3] were more than 25000 nM and 500 nM, respectively.
Regarding `CSc1ncc(-c2ccc(S(C)(=O)=O)cc2)n1-c1ccc(Cl)cc1`, the values for the inhibition in vivo at 50 mg/kg with Rattus norvegicus [1] and with Rattus norvegicus [4] were 59.5% and 42.7%, respectively. The IC50 is more than 25000 nM in assay [2] and 470 nM in assay [3].
On the same counts, the results for `CCSc1ncc(-c2ccc(S(C)(=O)=O)cc2)n1-c1ccc(Cl)cc1` are 53.8%, 52.7%, more than 25000 nM and 820 nM.
In the case of `CSc1ncc(-c2ccc(S(C)(=O)=O)cc2)n1-c1ccccc1`, the results for the inhibition in vivo at 50 mg/kg in the assay on Rattus norvegicus [1] and with Rattus norvegicus [4] were 74.1% and 61.6%, respectively. In addition, the IC50 was more than 25000 nM in assay [2] and 580 nM in assay [3].
